From patent publication US9695155B2, “Herbicidal substituted pyrimidinyloxy benzene compounds” (E. I. DU PONT DE NEMOURS AND COMPANY, priority 2013, dated 2017)

Experiments:
[1] = test system: johnsongrass; assay: Test C preemergence; format: in vivo, Sorghum halepense; settings: for Johnsongrass plant response rating: preemergence
Source text: (§1) Seeds of plant species selected from blackgrass (Alopecurus myosuroides), Italian ryegrass (Lolium multiflorum), wheat, winter (winter wheat, Triticum aestivum), galium (catchweed bedstraw, Galium aparine), corn (Zea mays), large (Lg) crabgrass (Digitaria sanguinalis), giant foxtail (Setaria faberii), johnsongrass (Sorghum halepense), lambsquarters (Chenopodium album), morningglory (Ipomoea coccinea), yellow nutsedge (Cyperus esculentus), pigweed (Amaranthus retroflexus), ragweed (common ragweed, Ambrosia elatior), soybean (Glycine max), barnyardgrass (Echinochloa crus-galli), oilseed rape (Brassica napus), waterhemp (common waterhemp, Amaranthus rudis), kochia (Kochia scoparia), wild oat (Avena fatua), surinam grass (Brachiaria decumbens), foxtail, green (green foxtail, Setaria viridis), goosegrass (Eleusine indica), bromegrass, downy (downy bromegrass, Bromus tectorum), nightshade (eastern black nightshade, Solanum ptycanthum), cocklebur (common cocklebur, Xanthium strumarium), cupgrass, woolly (woolly cupgrass, Eriochloa villosa), bermudagrass (Cynodon dactylon), sunflower, (common oilseed sunflower, Helianthus annuus), Russian thistle (Salsola kali), and velvetleaf (Abutilon theophrasti) were planted into a blend of loam soil and sand and treated preemergence with test chemicals formulated in a non-phytotoxic solvent mixture which included a surfactant.
(§2) At the same time, plants selected from these crop and weed species and also barley, winter (winter barley, Hordeum vulgare), windgrass (Apera spica-venti), chickweed (common chickweed, Stellaria media), deadnettle (henbit deadnettle, Lamium amplexicaule), and canarygrass (littleseed canarygrass, Phalaris minor) were planted in pots containing Redi-Earth® planting medium (Scotts Company, 14111 Scottslawn Road, Marysville, Ohio 43041) comprising spaghnum peat moss, vermiculite, wetting agent and starter nutrients and treated with postemergence applications of test chemicals formulated in the same manner. Plants ranged in height from 2 to 18 cm (1- to 4-leaf stage) for postemergence treatments. Treated plants and controls were maintained in a greenhouse for 13 to 15 days, after which time all species were compared to controls and visually evaluated. Plant response ratings, summarized in Table C, are based on a scale of 0 to 100 where 0 is no effect and 100 is complete control. A dash (-) response means no test result.

[2] = test system: corn; assay: Test A preemergence; format: in vivo, Zea mays; settings: for Corn plant response rating: 500 g ai/ha
Procedure, shortened: (§3)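 Greenhouse pot test, loam/sand soil. Formulation: non-phytotoxic solvent mix plus surfactant. Pre: directed spray onto soil after sowing. Post: plants at 1–2 leaf, 2–10 cm. Rated visually vs untreated controls at ~10 d, 0 (no effect) to 100 (complete control).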

[3] = test system: barnyardgrass; assay: Test A postemergence; format: in vivo, Echinochloa crus-galli
Procedure, shortened: as §3

[4] = test system: galium; assay: Test C preemergence; format: in vivo, Galium aparine; settings: for Galium plant response rating: preemergence; for Plant response rating, Galium: Preemergence, scale 0 to 100, 0 no effect, 100 complete control
Source text: as §1, §2

[5] = test system: wheat; assay: Test A postemergence; format: in vivo, Triticum aestivum
Procedure, shortened: as §3

[6] = test system: barnyardgrass; assay: Test A preemergence; format: in vivo, Echinochloa crus-galli; settings: for Plant response rating, Barnyardgrass / Barnyardgrass plant response rating: 0 to 100 scale where 0 is no effect and 100 is complete control; for Barnyardgrass plant response rating: 500 g ai/ha
Procedure, shortened: as §3

[7] = test system: Italian ryegrass; assay: Test C preemergence; format: in vivo, Lolium multiflorum; settings: for Ryegrass, Italian plant response rating: preemergence
Source text: as §1, §2

[8] = test system: morningglory; assay: Test C preemergence; format: in vivo, Ipomoea coccinea; settings: for Morningglory plant response rating: preemergence
Source text: as §1, §2

[9] = test system: giant foxtail; assay: Test C postemergence; format: in vivo, Setaria faberii
Procedure, shortened: (§4)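 Injury was assessed visually against controls 13 to 15 days after application, with 0 meaning no effect and 100 full control; missing entries are shown as a dash. Preemergence sprays hit seeded loam–sand soil, postemergence sprays hit 1- to 4-leaf plants.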

[10] = test system: galium; assay: Test C postemergence; format: in vivo, Galium aparine
Procedure, shortened: as §4

[11] = test system: ragweed; assay: Test C postemergence; format: in vivo, Ambrosia elatior
Procedure, shortened: as §4

[12] = test system: soybean; assay: Test C postemergence; format: in vivo, Glycine max
Procedure, shortened: as §4

[13] = test system: Italian ryegrass; assay: Test A postemergence; format: in vivo, Lolium multiflorum; settings: 0 to 100 scale, 0 no effect, 100 complete control
Procedure, shortened: as §3

[14] = test system: blackgrass; assay: Test C postemergence; format: in vivo, Alopecurus myosuroides
Procedure, shortened: as §4

[15] = test system: velvetleaf; assay: Test C postemergence; format: in vivo, Abutilon theophrasti
Procedure, shortened: as §4

[16] = test system: lambsquarters; assay: Test C postemergence; format: in vivo, Chenopodium album
Procedure, shortened: as §4

[17] = test system: Italian ryegrass; assay: Test A preemergence; format: in vivo, Lolium multiflorum
Procedure, shortened: as §3

[18] = test system: kochia; assay: Test A preemergence; format: in vivo, Kochia scoparia
Procedure, shortened: as §3

[19] = 16 g ai/ha, scale 0 to 100 (0 no effect, 100 complete control)
[20] = 62 g ai/ha, scale 0 (no effect) to 100 (complete control)
[21] = 125 g ai/ha, scale 0 (no effect) to 100 (complete control)
[22] = 125 g ai/ha, 0 to 100 scale where 0 is no effect and 100 is complete control
[23] = 0 to 100 scale where 0 is no effect and 100 is complete control
[24] = 500 g ai/ha, 0 to 100 scale where 0 is no effect and 100 is complete control
[25] = 31 g ai/ha, scale 0 to 100 (0 no effect, 100 complete control)
[26] = Preemergence, 62 g ai/ha, scale 0 to 100, 0 no effect, 100 complete control
[27] = 125 g ai/ha, 0 to 100 scale, 0 no effect, 100 complete control
[28] = 16 g ai/ha, postemergence, 0 is no effect, 100 is complete control
[29] = 31 g ai/ha, postemergence, visual rating, scale 0 to 100 (0 no effect, 100 complete control), 13 to 15 days
[30] = 125 g ai/ha, postemergence, visual rating, scale 0 to 100 (0 no effect, 100 complete control)
[31] = Postemergence, 62 g ai/ha, scale 0 to 100 (0 no effect, 100 complete control), 13 to 15 days
[32] = 31 g ai/ha, 0 to 100 scale, 0 no effect, 100 complete control
[33] = 31 g ai/ha, 0 to 100 scale where 0 is no effect and 100 is complete control, visual, approximately 10 days

SMILES: FC(F)c1cccc(Oc2ncc(Cl)cn2)c1-n1cc(C(F)(F)F)cn1 [Compound 170]
- Johnsongrass plant response rating [1, 19]: 0
- Johnsongrass plant response rating [1, 20]: 70
- Johnsongrass plant response rating [1, 21]: 85
- Plant response rating, Corn [2, 22]: 0
- Corn plant response rating [2, 23]: 20
- Barnyardgrass plant response rating [3, 22]: 70
- Plant response rating, Barnyardgrass [3, 24]: 90
- Galium plant response rating [4, 19]: 95
- Galium plant response rating [4, 20]: 100
- Galium plant response rating [4, 21]: 100
- Plant response rating, Galium ([4]; 31 g ai/ha): 98
- Wheat plant response rating [5, 22]: 30
- Plant response rating, Wheat [5, 24]: 70
- Plant response rating, Barnyardgrass ([6]; 125 g ai/ha): 90
- Barnyardgrass plant response rating [6]: 100
- Ryegrass, Italian plant response rating [7, 19]: 5
- Ryegrass, Italian plant response rating [7, 20]: 75
- Ryegrass, Italian plant response rating [7, 21]: 90
- Morningglory plant response rating [8, 19]: 0
- Morningglory plant response rating [8, 20]: 40
- Morningglory plant response rating [8, 21]: 100

SMILES: NC(=S)c1cccc(Oc2ncc(Cl)cn2)c1-n1cc(Cl)cn1 [Compound 292]
- Johnsongrass plant response rating [1, 19]: 0
- Johnsongrass plant response rating [1, 25]: 5
- Johnsongrass plant response rating [1, 21]: 85
- Plant response rating, Johnsongrass [1, 26]: 40
- Corn plant response rating (0 to 100 scale) ([2]; 125 g ai/ha): 20
- Corn plant response rating [2, 23]: 30
- Plant response rating, Barnyardgrass [3, 27]: 60
- Plant response rating, Barnyardgrass [3, 24]: 90
- Galium plant response rating [4, 19]: 80
- Galium plant response rating [4, 25]: 98
- Galium plant response rating [4, 21]: 100
- Plant response rating, Galium ([4]; 62 g ai/ha): 100
- Plant response rating, Wheat [5, 27]: 10
- Plant response rating, Wheat [5, 24]: 60
- Barnyardgrass plant response rating (0 to 100 scale, 0 is no effect, 100 is complete control) ([6]; 125 g ai/ha): 80
- Barnyardgrass plant response rating [6]: 100
- Ryegrass, Italian plant response rating [7, 19]: 0
- Ryegrass, Italian plant response rating [7, 25]: 0
- Ryegrass, Italian plant response rating [7, 21]: 85
- Plant response rating, Ryegrass, Italian [7, 26]: 10
- Morningglory plant response rating [8, 19]: 25
- Morningglory plant response rating [8, 25]: 30
- Morningglory plant response rating [8, 21]: 70
- Plant response rating, Morningglory [8, 26]: 35

SMILES: FCc1cccc(Oc2ncc(Cl)cn2)c1-n1cc(I)cn1 [Compound 245]
- Plant response rating (0 to 100), Foxtail, Giant [9, 28]: 35
- Foxtail, Giant plant response rating [9, 29]: 35
- Plant response rating, Foxtail, Giant [9, 30]: 15
- Plant response rating, Foxtail, Giant [9, 31]: 20
- Plant response rating (0 to 100), Galium [10, 28]: 60
- Galium plant response rating [10, 29]: 60
- Plant response rating, Galium [10, 30]: 85
- Plant response rating, Galium [10, 31]: 80
- Plant response rating (0 to 100), Ragweed [11, 28]: 35
- Ragweed plant response rating [11, 29]: 40
- Plant response rating, Ragweed [11, 30]: 60
- Plant response rating, Ragweed [11, 31]: 45
- Plant response rating (0 to 100), Soybean [12, 28]: 40
- Soybean plant response rating [12, 29]: 60
- Plant response rating, Soybean [12, 30]: 90
- Plant response rating, Soybean [12, 31]: 60
- Plant response rating, Ryegrass, Italian ([13]; 31 g ai/ha): 0
- Plant response rating, Ryegrass, Italian ([13]; 125 g ai/ha): 20
- Plant response rating (0 to 100), Blackgrass [14, 28]: 0
- Blackgrass plant response rating [14, 29]: 0
- Plant response rating, Blackgrass [14, 30]: 5
- Plant response rating, Blackgrass [14, 31]: 5
- Plant response rating, Barnyardgrass [3, 32]: 0
- Plant response rating, Barnyardgrass [3, 27]: 30
- Plant response rating, Wheat [5, 32]: 20
- Plant response rating, Wheat [5, 27]: 40
- Plant response rating (0 to 100), Velvetleaf [15, 28]: 5
- Velvetleaf plant response rating [15, 29]: 10
- Plant response rating, Velvetleaf [15, 30]: 55
- Plant response rating, Velvetleaf [15, 31]: 35
- Plant response rating (0 to 100), Lambsquarters [16, 28]: 50
- Lambsquarters plant response rating [16, 29]: 70
- Plant response rating, Lambsquarters [16, 30]: 98
- Plant response rating, Lambsquarters [16, 31]: 80
- Plant response rating, Barnyardgrass ([6]; 31 g ai/ha, visual, approximately 10 days): 0
- Barnyardgrass plant response rating (0 to 100 scale, 0 is no effect, 100 is complete control) ([6]; 125 g ai/ha): 70
- Plant response rating, Ryegrass, Italian [17, 33]: 0
- Ryegrass, Italian plant response rating (0 to 100 scale) ([17]; 125 g ai/ha): 0
- Plant response rating, Kochia [18, 33]: 0
- Kochia plant response rating (0 to 100 scale) ([18]; 125 g ai/ha): 30
